Results taken from PMC3514547 (Biochemistry, 2012).
Several values for one entry are separate records, joined by “and”; a condition that tells them apart may be missing. Equal values may be shown once. Read-outs that look alike come from different tables or passages of the source.

Columns and labels:
[1] = molecular target: T1, SpPot1-DBD binding to d(GGTTACGGTTAC) (Schizosaccharomyces pombe, UniProt O13988); assay: Double filter-binding competition assay, SpPot1-DBD/cognate ssDNA
T1 sequence (O13988 1-389 limits assumed): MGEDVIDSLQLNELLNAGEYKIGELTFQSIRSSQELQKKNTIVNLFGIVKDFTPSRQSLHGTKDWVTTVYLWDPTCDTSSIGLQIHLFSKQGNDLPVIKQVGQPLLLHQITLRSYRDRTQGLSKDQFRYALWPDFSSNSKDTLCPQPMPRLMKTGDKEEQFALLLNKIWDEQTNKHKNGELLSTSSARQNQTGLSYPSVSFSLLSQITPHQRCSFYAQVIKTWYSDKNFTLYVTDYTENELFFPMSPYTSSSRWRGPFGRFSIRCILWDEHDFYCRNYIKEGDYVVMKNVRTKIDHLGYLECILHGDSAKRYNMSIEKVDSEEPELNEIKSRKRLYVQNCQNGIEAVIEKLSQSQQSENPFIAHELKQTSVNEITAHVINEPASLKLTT

[2] = cited from earlier work
[3] = test system: cell culture and animal models; settings: high doses (~ 100 μM); cited from earlier work
[4] = molecular target: T2, Pot1pN (first DNA-binding OB fold of S. pombe Pot1) (Schizosaccharomyces pombe, UniProt O13988); assay: ITC of ligand binding to Pot1pN; settings: for -TΔS / ΔH / Kd: ITC, 20 °C; for Kd: one-site binding model
[5] = molecular target: T3, Pot1pN binding to 6mer ssDNA (Schizosaccharomyces pombe, UniProt O13988); assay: Secondary double filter-binding assay, Pot1pN/6mer; settings: compound up to 500 μM
T3 sequence (O13988 1-187 limits assumed): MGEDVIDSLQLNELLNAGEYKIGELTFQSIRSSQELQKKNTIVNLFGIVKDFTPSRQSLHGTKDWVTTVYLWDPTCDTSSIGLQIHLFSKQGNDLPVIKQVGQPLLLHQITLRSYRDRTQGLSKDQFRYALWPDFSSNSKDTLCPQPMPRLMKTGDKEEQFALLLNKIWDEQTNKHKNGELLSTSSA

[6] = test system: germ cells; settings: prenatal administration during germ cell development, mice; cited from earlier work
[7] = molecular target: T4, Pot1pN (Schizosaccharomyces pombe, UniProt O13988); assay: Dynamic light scattering of Pot1pN/CR complex; settings: DLS, equimolar CR 300 μM
T4 sequence (O13988 1-187 limits assumed): T3 sequence (O13988 1-187 limits assumed)

[8] = molecular target: T5, hPOT1-DBD binding to d(GGTTAGGGTTAG) (Homo sapiens, UniProt Q9NUX5); assay: Double filter-binding competition assay, hPOT1-DBD/telomeric ssDNA
T5 sequence (Q9NUX5 1-299): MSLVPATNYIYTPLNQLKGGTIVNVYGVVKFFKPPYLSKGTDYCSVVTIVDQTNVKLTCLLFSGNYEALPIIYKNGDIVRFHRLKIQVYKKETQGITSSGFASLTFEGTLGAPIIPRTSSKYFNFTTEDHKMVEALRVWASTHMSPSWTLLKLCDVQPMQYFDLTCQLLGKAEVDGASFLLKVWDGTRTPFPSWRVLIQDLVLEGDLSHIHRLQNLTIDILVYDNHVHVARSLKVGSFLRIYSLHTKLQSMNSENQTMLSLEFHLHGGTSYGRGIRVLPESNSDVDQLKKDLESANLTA

[9] = CR solubility at NMR pH; type: physicochemical
[10] = test system: amyloidosis phenotypes; settings: low doses (≤ 10 μM); cited from earlier work
[11] = molecular target: T2, Pot1pN (first DNA-binding OB fold of S. pombe Pot1); settings: read-out: KD of Pot1pN/6mer interaction; cognate ssDNA ligand; cited from earlier work
[12] = molecular target: T6, Pot1pN (first OB fold of SpPot1) (Schizosaccharomyces pombe, UniProt O13988 1-187); assay: double-filter binding
T6 sequence: T3 sequence (O13988 1-187 limits assumed)

[13] = molecular target: T7, 6xHis-Pot1pN (TR-FRET) (Schizosaccharomyces pombe, UniProt O13988 1-187); assay: TR-FRET
T7 sequence: T3 sequence (O13988 1-187 limits assumed)

[14] = molecular target: T8, SpPot1-DBD (Pot1-DBD) (Schizosaccharomyces pombe, UniProt O13988 1-389); assay: double-filter binding
T8 sequence: T1 sequence (O13988 1-389 limits assumed)

[15] = molecular target: T9, hPOT1 (hPOT1-DBD) (human, UniProt Q9NUX5 1-299); assay: double-filter binding
T9 sequence: T5 sequence (Q9NUX5 1-299)

Nc1c(/N=N/c2ccc(-c3ccc(/N=N/c4cc(S(=O)(=O)O)c5ccccc5c4N)cc3)cc2)cc(S(=O)(=O)O)c2ccccc12 [CR, Congo red]
IC50 [1]: 112000 ± 9000 nM
aggregation point [2]: 50 µM
toxicity [3]: toxic
binding stoichiometry (n) ([4]; ITC forward titration, one-site model): 1.07 ± 0.02
-TΔS [4]: 1.4 ± 0.2 kcal/mol
ΔH [4]: -9.7 ± 0.2 kcal/mol
Kd [4]: 700 ± 10 nM
inhibition of Pot1pN binding to 6mer [5]: functionally inhibited Pot1pN binding to 6mer
effect on germ cell number [6]: drastic and permanent reduction in germ cell number
calculated radius of Pot1pN/CR species [7]: 3.8 nm
calculated MW of Pot1pN/CR species ([7]; consistent with 3:3 trimer complex): 77 kDa
IC50 [8]: 130000 ± 17000 nM
solubility behaviour at pH 6.15 [9]: precipitates from solution
effect on amyloidosis phenotypes and cell survival [10]: rescue amyloidosis phenotypes and prolong cell survival

Cc1cc(-c2ccc(/N=N/c3c(S(=O)(=O)O)cc4cc(S(=O)(=O)O)cc(N)c4c3O)c(C)c2)ccc1/N=N/c1c(S(=O)(=O)O)cc2cc(S(=O)(=O)O)cc(N)c2c1O [TB, Trypan blue]
-TΔS [4]: 5.7 ± 0.02 kcal/mol
ΔH [4]: -13.6 ± 0.004 kcal/mol
Kd [4]: 1210 nM and 1200 nM

Cc1ccc2c(c1)sc(-c1ccc(N(C)C)cc1)[n+]2C [Thioflavin T]
binding to Pot1pN by ITC ([4]; 2 mM Thioflavin T titrated into Pot1pN, single replicate): no detectable binding
inhibition of Pot1pN binding to 6mer [5]: no effect

d(GGTTAC) [6mer]
Kd [11]: 30 nM

GGTTAC (ssDNA) [6mer]
binding result [12]: binds

TAAGGTTAC (ssDNA, 5' biotin (printed as biotin-conjugated threonine), 3-nt TAA linker) [biotin-d(TAAGGTTAC)]
binding result [13]: binds

GGTTACGGTTAC (ssDNA) [d(GGTTACGGTTAC)]
binding result [14]: binds

GGTTAGGGTTAG (ssDNA) [d(GGTTAGGGTTAG)]
binding result [15]: binds
